Laboratory results published in patent US6569850B1, “Treatment of multiple sclerosis (MS) and other demyelinating conditions using lofepramine in combination with L-phenylalanine, tyrosine or tyrptophan and possibly a vitamin B12 compound” (priority 1994, dated 2003).
“Also recorded” adds a separate entry of the source.

Assay: Treatment of patients with Multiple Sclerosis (case histories and patient series)
Assay type: in vivo, human
Details: for Contribution of the component to the therapeutic effect in MS: added to the antidepressant regime
Experimental: Over 100 other patients have done well on a similar regime, although some have been given other antidepressants either of the traditional tricyclic class, such as amitriptyline or imipramine, or the newer specialist serotonin uptake inhibitors or monoamine oxidase inhibitors. Four particular instances are given in the appendix. […] The doses of LPA have also varied from about 100 mg to up to 5 g per day, but best results are obtained with doses in the region of 500-2000 mg/day. The doses of antidepressants (with the proviso that minimum effective and maximum safe levels are determined according to the drug), lie broadly in the range 10 mg to 200 mg per day.
A specific example of the use of the treatment is 70 mgs (half the therapeutic starting dose for depression) of lofepramine taken each morning with 500 mgs of L-phenylalanine, and 500 mgs of L-phenylalanine taken mid afternoon. For patients with the regular MS attacks of chronic progressive MS it is desirable to include an 8-10 week course of 1000 micrograms of hydroxocobalamin (intra muscular) per week at the start of treatment and then 1000 micrograms every ten days thereafter.

Row | Compound | Contribution of the component to the therapeutic effect in MS | Comparative therapeutic result among antidepressants in MS treatment (antidepressant combined with neurotransmitter precursor)
1 | N[C@@H](Cc1ccccc1)C(=O)O [L-phenylalanine (LPA), L-phenylalanine] | contributes to the therapeutic effect | 
2 | CN(CCCN1c2ccccc2CCc2ccccc21)CC(=O)c1ccc(Cl)cc1 [lofepramine] |  | best results; also recorded: Most have done best
3 | vitamin B12 | does have a beneficial effect; also recorded: the treatment works best | 
